The results in this text go back to US20120122948A1, “3-ALKYL-5-FLUOROINDOLE DERIVATIVES AS MYELOPEROXIDASE INHIBITORS” (UNIVERSITE LIBRE DE BEUXELLES, priority 2009, published 2012).

Counter-ions that a name gives are not always drawn. Like-named read-outs stand apart in the source and are kept apart here.

Experiment [1] deals with T1, MPO (Homo sapiens, UniProt P05164).
T1 construct: made in house
T1 sequence (P05164 49-745): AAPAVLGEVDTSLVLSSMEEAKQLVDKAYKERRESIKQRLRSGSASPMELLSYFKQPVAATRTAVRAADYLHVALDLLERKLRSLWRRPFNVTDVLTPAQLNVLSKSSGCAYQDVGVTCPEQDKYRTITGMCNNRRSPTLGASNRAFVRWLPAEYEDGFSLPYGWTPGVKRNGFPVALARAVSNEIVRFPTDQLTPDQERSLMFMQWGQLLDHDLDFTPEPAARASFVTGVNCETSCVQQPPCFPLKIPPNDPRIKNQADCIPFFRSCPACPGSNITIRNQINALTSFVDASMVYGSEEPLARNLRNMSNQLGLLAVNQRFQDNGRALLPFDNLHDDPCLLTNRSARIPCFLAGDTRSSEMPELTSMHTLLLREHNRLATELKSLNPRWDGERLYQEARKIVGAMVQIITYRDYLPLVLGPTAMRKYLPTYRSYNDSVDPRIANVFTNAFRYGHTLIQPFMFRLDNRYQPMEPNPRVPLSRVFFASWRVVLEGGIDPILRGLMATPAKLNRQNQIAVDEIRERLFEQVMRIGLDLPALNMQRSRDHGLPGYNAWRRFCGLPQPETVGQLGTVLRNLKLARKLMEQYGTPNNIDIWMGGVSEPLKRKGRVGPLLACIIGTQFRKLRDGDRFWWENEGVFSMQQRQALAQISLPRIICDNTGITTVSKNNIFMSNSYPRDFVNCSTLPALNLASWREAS
Description: Inhibition of LDL oxidation by MPO, ELISA with Mab AG9. The conditions noted are these: for remaining activity at 0.05 µM / remaining activity at 0.1 µM / remaining activity at 1 µM / LDL oxidation (%): 5 min. The experiment is classed as biochemical. How it is done: Recombinant MPO was prepared as previously described. Each batch solution is characterized by its protein concentration (mg/ml), its activity (U/ml), and its specific activity (U/mg). The chlorination activity was determined according to Hewson and Hager. Human plasma served for the isolation of LDL by ultracentrifugation according to Havel et al. Before oxidation, the LDL fraction (1.019<d<1.067 g/ml) was desalted by two consecutive passages through PD10 gel-filtration columns (Amersham Biosciences, The Netherlands) using PBS buffer. The different steps were carried out in the dark and the protein concentration was measured by the Lowry assay for both MPO and LDL.
The LDL oxidation was carried out at 37° C. in a final volume of 500 μl. The reaction mixture contained the following reagents at the final concentrations indicated between brackets: pH 7.2, PBS buffer, MPO (1 μg/ml), LDL (1000 μg/ml), 2 μl HCl 1N (4 mM), a compound of formula (Ia) of the present invention (50, 100 and 1000 nM), and H2O2 (100 μM). The reaction was stopped after 5 min by cooling the tubes in ice. The assay was performed as described by Moguilevsky et al. (Moguilevsky N., Zouaoui Boudjeltia Z., Babar S., Delrée P., Legssyer I., Carpentier Y., Vanhaeverbeek M., Ducobu J. Monoclonal antibodies against LDL progressively oxidized by myeloperoxidase react with ApoB-100 protein moiety and human atherosclerotic lesions. Biochem. Biophys. Res. Commun. 2004, 323, 1223-1228) in a NUNC maxisorp plate (VWR, Zaventem, Belgium): 200 ng/well of LDL was coated overnight at 4° C. in a sodium bicarbonate pH 9.8 buffer (100 μl). Afterwards, the plate was washed with TBS 80 buffer and then saturated during 1 h at 37° C. with the PBS buffer containing 1% BSA (150 μl/well). After washing the wells twice with the TBS 80 buffer, the monoclonal antibody Mab AG9 (200 ng/well) obtained according to a standard protocol and as previously described was added as a diluted solution in PBS buffer with 0.5% BSA and 0.1% of Polysorbate 20. After incubation for 1 h at 37° C., the plate was washed four times with the TBS 80 buffer and a 3000 times diluted solution of Ig G anti-mouse Alkaline Phosphatase (Promega, Leiden, The Netherlands) in the same buffer was added (100 μl/well). The wells were washed again four times and a revelation solution (150 μl/well) containing 5 mg of para-nitrophenyl phosphate in 5 ml of diethanolamine buffer was added for 30 min at room temperature. The reaction was stopped with 60 μl/well of NaOH 3 N solution. The measurement of the absorbance was performed at 405 nm with a background correction at 655 nm with a Bio-Rad photometer for a 96-well plate (Bio-Rad laboratories, CA, USA). Results were expressed as means of the percentage of LDL oxidation for six independent measurements.
(In an ELISA, binding on a coated surface is turned into a signal by an enzyme label.)

Experiment [2] addresses T1, MPO. Kind of experiment: Myeloperoxidase inhibition (MPO) assay, taurine chloramine production by the MPO/H2O2/Cl- system. The experiment is classed as biochemical. The conditions noted are these: for 1/IC50: inhibition capability expressed as 1/IC50. The source says:
The assay was based on the production of taurine chloramine produced by the MPO/H2O2/Cl^− system in the presence of a selected inhibitor at defined concentration. The procedure for detecting the inhibition of myeloperoxidase has been described in Van Antwerpen et al. (Development and validation of a screening procedure for the assessment of inhibition using a recombinant enzyme, Talanta, 2008, 75(2), 503-510) and is incorporated herewith by reference. Briefly, the reaction mixture contained the following reagents in a final volume of 200 μl: pH 7.4 phosphate buffer (PO4^3−10 mM/NaCl 300 mM), taurine (15 mM), a compound to be tested (up to 20 μM), and the fixed amount of the recombinant MPO (6.6 μl of MPO batch solution diluted 2.5 times, 40 nM). When necessary, the volume was adjusted with water. This mixture was incubated at 37° C. and the reaction initiated with 10.0 μl of H2O2 (100 μM). After 5 minutes, the reaction was stopped by the addition of 10 μl of catalase (8 U/μl). To determine the amount of taurine chloramines produced, 50 μl of 1.35 mM solution of thionitrobenzoic acid were added and the volume adjusted to 300 μl with water. Then, the absorbance of the solutions was measured at 412 nm with a microplate reader and the curve of the absorbance as a function of the inhibitor concentration was plotted. IC50 values against myeloperoxidase enzyme were then determined using standard procedures taking into account the absence of hydrogen peroxide as 100% of inhibition and the absence of inhibitors as 0% of inhibition.

[3] abbreviates: pH 7.2, read-out: LDL oxidation (%).
Setting [4] is: recombinant MPO 40 nM, pH 7.4 phosphate buffer, 37° C., H2O2 100 μM, 5 minutes.
The mark [5] stands for this setting: pH 7.2, compound 50 nM, MPO 1 μg/ml, LDL 1000 μg/ml, pH 7.2, 37° C., mean of six measurements, read-out: LDL oxidation (%).
[6] abbreviates: pH 7.2, compound 100 nM, MPO 1 μg/ml, LDL 1000 μg/ml, pH 7.2, 37° C., mean of six measurements, read-out: LDL oxidation (%).
Where [7] appears, read: pH 7.2, compound 1000 nM, MPO 1 μg/ml, LDL 1000 μg/ml, pH 7.2, 37° C., mean of six measurements, read-out: LDL oxidation (%).
Where [8] appears, read: value given in nM in the text on FIG. 2.
[9] abbreviates: compound 50 nM, MPO 1 μg/ml, LDL 1000 μg/ml, pH 7.2, 37° C., mean of six measurements.
[10] abbreviates: compound 100 nM, MPO 1 μg/ml, LDL 1000 μg/ml, pH 7.2, 37° C., mean of six measurements.
The mark [11] stands for this setting: compound 1000 nM, MPO 1 μg/ml, LDL 1000 μg/ml, pH 7.2, 37° C., mean of six measurements.

With `NCCc1c[nH]c2ccc(F)cc12` [Compound A, 5-fluorotryptamine, reference compound], on MPO [1] (setting [3]), the remaining activity at 0.05 µM was determined as 119%, the remaining activity at 0.1 µM was 111% and the remaining activity at 1 µM is 41.5%. For the same compound, the “inhibition of LDL oxidation (in words)” value against MPO [1] (irrespective of its concentration in the medium) was “poorly effective”. The compound further registered a 1/IC50 at MPO [2] of 5 ± 0.6 µM⁻¹. For the same compound, the half-maximal inhibitory concentration (IC50) (as a rule, the concentration needed to halve the response being measured) on MPO [2] (setting [4]) came out at 200 nM.

`NCCCc1c[nH]c2ccc(F)cc12` [Compound B, 3-(3-Aminopropyl)-5-fluoro-[1H]-indole]: at MPO [1] (setting [5]), the remaining activity at 0.05 µM turned out to be 26%. Further, at MPO [1] (setting [6]), the remaining activity at 0.1 µM turned out to be 19%. Also, at MPO [1] (setting [7]), the remaining activity at 1 µM turned out to be 9%. Besides, the “inhibition of LDL oxidation (in words)” value on MPO [1] (at low concentration) was “excellent results”. In addition, the 1/IC50 at MPO [2] turned out to be 20 ± 4 µM⁻¹. Also, the IC50 at MPO [2] (setting [4]) stood at 50 ± 8 nM.

On to `NCCCCc1c[nH]c2ccc(F)cc12` [Compound C, 3-(4-Aminobutyl)-5-fluoro-[1H]-indole oxalate], for which the remaining activity at 0.05 µM at MPO [1] (setting [5]) was < 18.5%. Moreover, the remaining activity at 0.1 µM on MPO [1] (setting [6]) is < 18.5%. In addition, the remaining activity at 1 µM on MPO [1] (setting [7]) stood at 6.1%. Besides, the “inhibition of LDL oxidation (in words)” value against MPO [1] (at low concentration) is “powerful performance”. Moreover, the 1/IC50 on MPO [2] was 72 ± 19 µM⁻¹. For the same compound, the 50% inhibitory concentration (IC50) came out at 15 nM at MPO [2] (setting [4]) and 15 ± 4 nM on MPO [2] (setting [8]).

Regarding `CN(C)CCc1c[nH]c2ccc(F)cc12` [Compound D, N,N-Dimethyl-3-(2-aminoethyl)-5-fluoro-[1H]-indole], at MPO [1] (setting [3]), the remaining activity at 0.05 µM came to 91.7%, the remaining activity at 0.1 µM turned out to be 64.2% and the remaining activity at 1 µM worked out at 9.9%. The 1/IC50 on MPO [2] worked out at 14 ± 7 µM⁻¹. Further, the IC50 at MPO [2] (setting [4]) is 90 ± 60 nM.

As to `Fc1ccc2[nH]cc(CCN3CCCC3)c2c1` [Compound E, 5-Fluoro-3-[2-(1-pyrrolidinyl)ethyl]-[1H]-indole], on MPO [1] (setting [3]), the remaining activity at 0.05 µM turned out to be 49.2%, the remaining activity at 0.1 µM was 47.9% and the remaining activity at 1 µM turned out to be 12.1%. The compound further gave a 1/IC50 at MPO [2] of 32 ± 19 µM⁻¹. Besides, the concentration for half-maximal inhibition (IC50) at MPO [2] (setting [4]) came to 40 ± 30 nM.

Take `CCN(CC)CCc1c[nH]c2ccc(F)cc12` [Compound F, N,N-Diethyl-3-(2-aminoethyl)-5-fluoro-[1H]-indole]: on MPO [1] (setting [3]), the remaining activity at 0.05 µM came out at 80.1%, the remaining activity at 0.1 µM is 60.2% and the remaining activity at 1 µM is 8%. The compound further had a 1/IC50 on MPO [2] of 7 ± 3 µM⁻¹. Besides, the 50% inhibitory concentration (IC50) at MPO [2] (setting [4]) stood at 160 ± 80 nM.

Take `CN(C)CCCc1c[nH]c2ccc(F)cc12` [Compound H, N,N-Dimethyl-3-(3-aminopropyl)-5-fluoro-[1H]indole tartrate]: on MPO [1] (setting [5]), the remaining activity at 0.05 µM worked out at 42.4%. In addition, the remaining activity at 0.1 µM on MPO [1] (setting [6]) amounted to 39.7%. The remaining activity at 1 µM at MPO [1] (setting [7]) was found to be 8.4%. In addition, the 1/IC50 at MPO [2] came to 11 ± 8 µM⁻¹. In addition, the IC50 at MPO [2] (setting [4]) amounted to 130 ± 90 nM.

With `NCCCCCc1c[nH]c2ccc(F)cc12` [Compound K, 3-(5-Aminopentyl)-5-fluoro-[1H]-indole oxalate], the remaining activity at 0.05 µM on MPO [1] (setting [5]) was 29.5%. Also, the remaining activity at 0.1 µM on MPO [1] (setting [6]) was 23.4%. The remaining activity at 1 µM at MPO [1] (setting [7]) amounted to 3.2%. Also, the “inhibition of LDL oxidation (in words)” value against MPO [1] (at low concentration) is listed as “powerful performance”. The 1/IC50 at MPO [2] was determined as 122 ± 15 µM⁻¹. For the same compound, the values for the half-inhibitory concentration (IC50) on MPO [2] (setting [4]) and on MPO [2] (setting [8]) were 8 nM and 8 ± 1 nM, respectively.

In the case of `NCCCCCCc1c[nH]c2ccc(F)cc12` [Compound L, 3-(6-Aminohexyl)-5-fluoro-[1H]-indole oxalate], at MPO [1] (setting [5]), the remaining activity at 0.05 µM is 91.8%. In addition, the remaining activity at 0.1 µM on MPO [1] (setting [6]) is 56.1%. In addition, the remaining activity at 1 µM at MPO [1] (setting [7]) worked out at 18.2%. On MPO [2], this compound displayed a 1/IC50 of 3.8 ± 0.2 µM⁻¹. On MPO [2] (setting [4]), the IC50 amounted to 260 ± 10 nM.

As to “N-Methyl-3-(3-aminopropyl)-5-fluoro-[1H]-indole tartrate [Compound G]”, the “inhibition of LDL oxidation (in words)” value at MPO [1] (at low concentration) is “excellent results”. The “LDL oxidation (%)” value was determined as 32.9% at MPO [1] (setting [9]), 24.8% on MPO [1] (setting [10]) and 10.2% on MPO [1] (setting [11]). The compound also gave a 1/IC50 on MPO [2] of 6 ± 2 µM⁻¹. In addition, on MPO [2] (setting [4]), the IC50 turned out to be 200 ± 200 nM.

On to “N-Propyl-3-(3-aminopropyl)-5-fluoro-[1H]-indole [Compound J]”, for which the results for the “LDL oxidation (%)” value at MPO [1] (setting [9]), at MPO [1] (setting [10]) and at MPO [1] (setting [11]) were 79.9%, 42.5% and 5.6%, respectively. Further, at MPO [2], the 1/IC50 is 6 ± 1 µM⁻¹. Moreover, at MPO [2] (setting [4]), the IC50 stood at 170 ± 30 nM.
